# Test results from ChEMBL document CHEMBL1129697, “Synthesis and anticonvulsant evaluation of a series of (R)- and (S)-N-Cbz--aminoglutarimide and succinimide” (Bioorg Med Chem Lett, 1996).
# The source made the active and inactive calls. No cut-off for these calls is given here.
# System: Mus musculus
# Assay: Compound was tested for anticonvulsant activity in male mice by pentylenetetrazole (80 mg/kg, sc) induced seizure test.
# Format: functional
# Details: not given
row,Structure (SMILES),ED50
1,CN1C(=O)CC[C@H](NC(=O)OCc2ccccc2)C1=O,12.5 mg/kg
2,CCC1(c2ccccc2)C(=O)NC(=O)NC1=O [PHENOBARBITAL],13.1 mg/kg
3,O=C1CC[C@@H](NC(=O)OCc2ccccc2)C(=O)N1,46.9 mg/kg
4,O=C1C[C@H](NC(=O)OCc2ccccc2)C(=O)N1,78.1 mg/kg
5,CCCC(CCC)C(=O)O [VALPROIC ACID],149 mg/kg
6,O=C1C[C@@H](NC(=O)OCc2ccccc2)C(=O)N1,110 mg/kg
7,CN1C(=O)C[C@H](NC(=O)OCc2ccccc2)C1=O,113 mg/kg
8,CN1C(=O)C[C@@H](NC(=O)OCc2ccccc2)C1=O,82.5 mg/kg
9,O=C1CC[C@H](NC(=O)OCc2ccccc2)C(=O)N1,42.5 mg/kg
10,CCC1(C)CC(=O)NC1=O (stereo not drawn) [ETHOSUXIMIDE],130 mg/kg
11,CN1C(=O)CC(C)(c2ccccc2)C1=O (stereo not drawn) [METHSUXIMIDE],34.5 mg/kg
12,CN1C(=O)OC(C)(C)C1=O [TRIMETHADIONE],250 mg/kg
13,CN1C(=O)CC[C@@H](NC(=O)OCc2ccccc2)C1=O,24.4 mg/kg

# System: Mus musculus
# Assay: Compound was tested for anticonvulsant activity in male mice by pentylenetetrazole (80 mg/kg, sc) induced seizure test.; No effect
# Format: functional, organism-based
# Details: not given
row,Structure (SMILES),ED50
1,O=C1NC(=O)C(c2ccccc2)(c2ccccc2)N1,inactive

# Species on record: Mus musculus
# Assay: Compound was tested for anticonvulsant activity in male mice using maximal electric shock seizure test.
# Format: functional
# Details: not given
row,Structure (SMILES),ED50
1,CN1C(=O)CC[C@H](NC(=O)OCc2ccccc2)C1=O,36.1 mg/kg
2,CCC1(c2ccccc2)C(=O)NC(=O)NC1=O [PHENOBARBITAL],21.8 mg/kg
3,O=C1CC[C@@H](NC(=O)OCc2ccccc2)C(=O)N1,56.3 mg/kg
4,O=C1C[C@H](NC(=O)OCc2ccccc2)C(=O)N1,103 mg/kg
5,CCCC(CCC)C(=O)O [VALPROIC ACID],272 mg/kg
6,O=C1C[C@@H](NC(=O)OCc2ccccc2)C(=O)N1,125 mg/kg
7,CN1C(=O)C[C@H](NC(=O)OCc2ccccc2)C1=O,61.2 mg/kg
8,CN1C(=O)C[C@@H](NC(=O)OCc2ccccc2)C1=O,52.5 mg/kg
9,O=C1CC[C@H](NC(=O)OCc2ccccc2)C(=O)N1,43.1 mg/kg
10,CN1C(=O)CC(C)(c2ccccc2)C1=O (stereo not drawn) [METHSUXIMIDE],42.6 mg/kg
11,CN1C(=O)OC(C)(C)C1=O [TRIMETHADIONE],704 mg/kg
12,CN1C(=O)CC[C@@H](NC(=O)OCc2ccccc2)C1=O,47.5 mg/kg

# Species on record: Mus musculus
# Assay: Compound was tested for anticonvulsant activity in male mice using maximal electric shock seizure test; No effect
# Format: functional, organism-based
# Details: not given
row,Structure (SMILES),ED50
1,CCC1(C)CC(=O)NC1=O (stereo not drawn) [ETHOSUXIMIDE],inactive

# System: not listed separately
# Assay: Compound was tested for anticonvulsant activity in male mice by pentylenetetrazole (80 mg/kg, sc) induced seizure test.; Protective index = TD50/ED50
# Format: ADME, organism-based
# Details: mouse, in vivo, read-out: PI
row,Structure (SMILES),selectivity ratio
1,CN1C(=O)CC[C@H](NC(=O)OCc2ccccc2)C1=O,5
2,O=C1CC[C@@H](NC(=O)OCc2ccccc2)C(=O)N1,2.6
3,O=C1C[C@H](NC(=O)OCc2ccccc2)C(=O)N1,2.1
4,O=C1C[C@@H](NC(=O)OCc2ccccc2)C(=O)N1,1.6
5,CN1C(=O)C[C@H](NC(=O)OCc2ccccc2)C1=O,1
6,CN1C(=O)C[C@@H](NC(=O)OCc2ccccc2)C1=O,2
7,O=C1CC[C@H](NC(=O)OCc2ccccc2)C(=O)N1,3.1
8,CCC1(C)CC(=O)NC1=O (stereo not drawn) [ETHOSUXIMIDE],3.4
9,CN1C(=O)CC(C)(c2ccccc2)C1=O (stereo not drawn) [METHSUXIMIDE],3.7
10,CN1C(=O)OC(C)(C)C1=O [TRIMETHADIONE],4.3
11,CN1C(=O)CC[C@@H](NC(=O)OCc2ccccc2)C1=O,4.9

# System: not listed separately
# Assay: Compound was tested for anticonvulsant activity in male mice using maximal electric shock seizure test.; Protective index = TD50/ED50
# Format: ADME
# Details: mouse, read-out: PI
row,Structure (SMILES),selectivity ratio
1,CN1C(=O)CC[C@@H](NC(=O)OCc2ccccc2)C1=O,2.5

# System: not listed separately
# Assay: Compound was tested for anticonvulsant activity in male mice using maximal electric shock seizure test; Protective index = TD50/ED50
# Format: ADME
# Details: mouse, read-out: PI
row,Structure (SMILES),selectivity ratio
1,CN1C(=O)CC[C@H](NC(=O)OCc2ccccc2)C1=O,1.7
2,O=C1CC[C@@H](NC(=O)OCc2ccccc2)C(=O)N1,2.2
3,O=C1C[C@H](NC(=O)OCc2ccccc2)C(=O)N1,1.6
4,O=C1C[C@@H](NC(=O)OCc2ccccc2)C(=O)N1,1.4
5,CN1C(=O)C[C@H](NC(=O)OCc2ccccc2)C1=O,1.9
6,CN1C(=O)C[C@@H](NC(=O)OCc2ccccc2)C1=O,3.2
7,O=C1CC[C@H](NC(=O)OCc2ccccc2)C(=O)N1,3
8,CN1C(=O)CC(C)(c2ccccc2)C1=O (stereo not drawn) [METHSUXIMIDE],3.1
9,CN1C(=O)OC(C)(C)C1=O [TRIMETHADIONE],1.5

# System: not listed separately
# Assay: Compound was tested for neurotoxic activity in male mice using rotarod test.
# Format: ADME
# Details: mouse, in vivo
row,Structure (SMILES),TD50
1,CN1C(=O)CC[C@H](NC(=O)OCc2ccccc2)C1=O,62.5 mg/kg
2,O=C1CC[C@@H](NC(=O)OCc2ccccc2)C(=O)N1,122 mg/kg
3,O=C1C[C@H](NC(=O)OCc2ccccc2)C(=O)N1,161 mg/kg
4,O=C1C[C@@H](NC(=O)OCc2ccccc2)C(=O)N1,178 mg/kg
5,CN1C(=O)C[C@H](NC(=O)OCc2ccccc2)C1=O,118 mg/kg
6,CN1C(=O)C[C@@H](NC(=O)OCc2ccccc2)C1=O,167 mg/kg
7,O=C1CC[C@H](NC(=O)OCc2ccccc2)C(=O)N1,130 mg/kg
8,CN1C(=O)CC(C)(c2ccccc2)C1=O (stereo not drawn) [METHSUXIMIDE],130 mg/kg
9,CN1C(=O)OC(C)(C)C1=O [TRIMETHADIONE],1070 mg/kg
10,CN1C(=O)CC[C@@H](NC(=O)OCc2ccccc2)C1=O,120 mg/kg
